Assay [1] is described as follows: NIH-3T3 fibroblast cytotoxicity, dose response, cytotoxicity control, cell-based, fluorescence, Alamar Blue, secondary assay (AID 2327).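 Note: NIH-3T3 mouse fibroblasts cultured with fluconazole at 8 µg/mL.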 The format is functional. A general note: Alamar Blue is a resazurin reagent that responds to reducing activity.
The nature of assay [2]: luciferase reporter signal suppression in cells – H4 neuroglioma cells, luminescence, dose response (AID 1990). The format is functional, cell-based. In general terms: A reporter such as luciferase makes a cellular process visible.
Assay [3] can be described thus: luciferase reporter signal reduction – luminescence, H4-C neuroglioblastoma cells, dose response (AID 2458).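 Note: H4 neuroglioblastoma cells stably carrying a luciferase reporter gene fusion.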 The format is functional, cell-based.
The subject of assay [4] is HEK293. The experiment in a line: inhibition of NOD1-driven NF-kB reporter – cell-based, luminescence, uHTS, primary screen (AID 1578). The following applies: Homo sapiens. The format is functional.
The subject of assay [5] is BJ. The experiment in a line: BJ-TERT fibroblast viability loss – cell-based, RAS-independent, luminescence, dose response (AID 1933). The assay is classed as functional. As to conditions: Homo sapiens.
For assay [6], the system named is HEK293. The experiment in a line: cells. The format is functional, cell-based. The following applies: Homo sapiens.
The nature of assay [7]: cells. The format is functional, cell-based.
Assay [8] is described as follows: Luminescence Cell-Based Dose Response HTS to Identify Inhibitors of 5'UTR Stem-Loop Driven Prion Protein mRNA Translation in H4 Neuroglioblastoma Cells. [Related pubchem assays: 1827 (Project Summary), 1813 (Primary HTS)]. The format is functional.
Assay [9] is described as follows: alpha-synuclein stem-loop luciferase translation blockers – H4 neuroglioma cells, luminescence, confirmation (AID 1988). The assay is classed as functional, cell-based.
Assay [10] relates to BJ. As to the kind of experiment: cells. The format is functional, cell-based. The following applies: Homo sapiens.
Assay [11] is described as follows: fluconazole-exposed Candida albicans growth modulators – fluorescence, retest, confirmation (AID 2467). The format is functional, cell-based.
The test system of assay [12] is HEK293. The experiment in a line: cells. The assay is classed as functional, cell-based. As to conditions: Homo sapiens. This is another data set of the same source.
Assay [13] concerns the target Nucleotide-binding oligomerization domain-containing protein 2 (Homo sapiens, UniProt Q9HC29). The experiment in a line: inhibition of NOD2-driven NF-kB reporter – cell-based, luminescence, uHTS, HEK293 (AID 1566). The assay is classed as functional.
Assay [14] concerns HEK293. The experiment in a line: NOD2 signaling inhibitors in MDP-stimulated cells, cell-based, uHTS, luminescence (AID 2001). The format is functional. As to conditions: Homo sapiens.
The test system of assay [15] is HEK293. As to the kind of experiment: cells. The assay is classed as functional, cell-based. As to conditions: Homo sapiens. The source holds these as a separate data set.
Assay [16] concerns the target T1, Serine/threonine-protein phosphatase (Candida dubliniensis (strain CD36 / CBS 7987 / NCPF 3949 / NRRLY-17841) (Yeast), UniProt B9W6M3).
T1 sequence (B9W6M3 whole entry): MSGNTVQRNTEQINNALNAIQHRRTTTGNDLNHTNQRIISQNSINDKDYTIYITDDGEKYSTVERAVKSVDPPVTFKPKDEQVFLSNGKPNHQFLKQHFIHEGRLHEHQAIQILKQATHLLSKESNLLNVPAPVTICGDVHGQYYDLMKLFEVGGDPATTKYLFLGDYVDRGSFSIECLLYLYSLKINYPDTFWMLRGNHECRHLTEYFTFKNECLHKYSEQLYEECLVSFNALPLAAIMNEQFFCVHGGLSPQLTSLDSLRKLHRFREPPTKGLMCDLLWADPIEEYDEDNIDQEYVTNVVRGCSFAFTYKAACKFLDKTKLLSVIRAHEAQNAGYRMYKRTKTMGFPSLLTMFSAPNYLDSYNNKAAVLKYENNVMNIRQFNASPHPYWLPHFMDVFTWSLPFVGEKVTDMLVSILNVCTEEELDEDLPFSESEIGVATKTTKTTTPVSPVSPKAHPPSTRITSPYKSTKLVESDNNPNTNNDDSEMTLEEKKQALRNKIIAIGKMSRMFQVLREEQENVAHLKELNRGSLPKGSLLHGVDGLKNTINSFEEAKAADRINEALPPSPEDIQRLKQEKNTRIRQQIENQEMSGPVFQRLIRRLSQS
The experiment in a line: blockers of CaCl2-induced CDRE-lacZ signaling – S. cerevisiae, luminescence, secondary, dose response (AID 2388).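 Note: yeast reporter cells carrying a calcineurin-responsive lacZ construct stimulated with calcium chloride; luminescent beta-galactosidase reporter signal in whole cells rather than isolated phosphatase activity; potency for inhibition where a drop in reporter signal means calcineurin blockade.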 The format is functional, cell-based.

Assay [17] deals with BJ. As to the kind of experiment: BJ-TERT-LT-ST fibroblast viability loss – cell-based, RAS-independent, luminescence, dose response (AID 1935).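 Note: BJ fibroblasts immortalized with TERT plus LT and ST oncogenes.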 The format is functional. The following applies: Homo sapiens.
Assay [18] is described as follows: DRD fibroblast viability loss – cell-based, non-viral oncogenic, luminescence, dose response (AID 1934). The following applies: Homo sapiens. The assay is classed as functional.
The nature of assay [19]: alpha-synuclein stem-loop translation blockers – luminescence, H4 neuroglioblastoma cells, dose confirmation, confirmation (AID 2454).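 Note: H4 neuroglioblastoma cells carrying an alpha-synuclein 5'UTR luciferase reporter; potency for inhibition of the luciferase signal.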 The assay is classed as functional, cell-based.
The subject of assay [20] is BJ. The experiment in a line: growth inhibition of engineered Ras-driven BJ cells – cell-based, alamar blue fluorescence, cherrypicked samples, dose response (AID 2631).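 Note: confirmatory dose-response assay in RAS-dependent BJ fibroblasts engineered with TERT, LT and ST, with cytotoxicity read by fluorescence.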 The assay is classed as functional. The following applies: Homo sapiens.
Assay [21] concerns the target ATP-dependent molecular chaperone HSP82 (Candida albicans (strain WO-1) (Yeast), UniProt C4YTQ8). The experiment in a line: steroid-induced GRE reporter decrease in yeast – S. cerevisiae, luminescence, Hsp90 inhibitor project, dose response (AID 2400).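 Note: beta-galactosidase luminescence from glucocorticoid response element reporter as proxy for Hsp90 function; inhibitor potency where signal loss means Hsp90 inhibition.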 The format is functional, cell-based.

Each structure is given as a SMILES string. Calls of active or inactive are those of the source. Cut-off read from the data, not from the text of the source, for most assays here: actives have a measured EC50 and inactives only a lower limit.

Sequence of ATP-dependent molecular chaperone HSP82 (C4YTQ8 whole entry): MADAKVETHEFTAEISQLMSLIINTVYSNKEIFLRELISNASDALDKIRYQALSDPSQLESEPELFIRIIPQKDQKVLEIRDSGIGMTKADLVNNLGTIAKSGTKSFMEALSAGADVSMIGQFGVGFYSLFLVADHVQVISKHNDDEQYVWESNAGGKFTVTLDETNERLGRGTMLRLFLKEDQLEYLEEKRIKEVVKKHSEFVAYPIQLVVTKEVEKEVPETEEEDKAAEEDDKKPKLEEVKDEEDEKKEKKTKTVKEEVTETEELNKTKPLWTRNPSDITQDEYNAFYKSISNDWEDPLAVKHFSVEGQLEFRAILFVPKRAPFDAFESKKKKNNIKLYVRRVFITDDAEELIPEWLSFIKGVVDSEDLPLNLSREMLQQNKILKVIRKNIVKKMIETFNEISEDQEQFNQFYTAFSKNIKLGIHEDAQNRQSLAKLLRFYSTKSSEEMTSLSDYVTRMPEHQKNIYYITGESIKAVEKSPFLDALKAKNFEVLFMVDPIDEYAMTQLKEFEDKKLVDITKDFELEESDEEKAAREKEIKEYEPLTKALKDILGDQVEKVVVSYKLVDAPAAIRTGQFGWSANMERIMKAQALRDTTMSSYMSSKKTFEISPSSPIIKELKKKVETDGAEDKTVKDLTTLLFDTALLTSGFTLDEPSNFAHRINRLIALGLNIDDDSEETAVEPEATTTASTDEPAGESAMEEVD
Sequence of Nucleotide-binding oligomerization domain-containing protein 2 (Q9HC29 whole entry, the tested form may be a part): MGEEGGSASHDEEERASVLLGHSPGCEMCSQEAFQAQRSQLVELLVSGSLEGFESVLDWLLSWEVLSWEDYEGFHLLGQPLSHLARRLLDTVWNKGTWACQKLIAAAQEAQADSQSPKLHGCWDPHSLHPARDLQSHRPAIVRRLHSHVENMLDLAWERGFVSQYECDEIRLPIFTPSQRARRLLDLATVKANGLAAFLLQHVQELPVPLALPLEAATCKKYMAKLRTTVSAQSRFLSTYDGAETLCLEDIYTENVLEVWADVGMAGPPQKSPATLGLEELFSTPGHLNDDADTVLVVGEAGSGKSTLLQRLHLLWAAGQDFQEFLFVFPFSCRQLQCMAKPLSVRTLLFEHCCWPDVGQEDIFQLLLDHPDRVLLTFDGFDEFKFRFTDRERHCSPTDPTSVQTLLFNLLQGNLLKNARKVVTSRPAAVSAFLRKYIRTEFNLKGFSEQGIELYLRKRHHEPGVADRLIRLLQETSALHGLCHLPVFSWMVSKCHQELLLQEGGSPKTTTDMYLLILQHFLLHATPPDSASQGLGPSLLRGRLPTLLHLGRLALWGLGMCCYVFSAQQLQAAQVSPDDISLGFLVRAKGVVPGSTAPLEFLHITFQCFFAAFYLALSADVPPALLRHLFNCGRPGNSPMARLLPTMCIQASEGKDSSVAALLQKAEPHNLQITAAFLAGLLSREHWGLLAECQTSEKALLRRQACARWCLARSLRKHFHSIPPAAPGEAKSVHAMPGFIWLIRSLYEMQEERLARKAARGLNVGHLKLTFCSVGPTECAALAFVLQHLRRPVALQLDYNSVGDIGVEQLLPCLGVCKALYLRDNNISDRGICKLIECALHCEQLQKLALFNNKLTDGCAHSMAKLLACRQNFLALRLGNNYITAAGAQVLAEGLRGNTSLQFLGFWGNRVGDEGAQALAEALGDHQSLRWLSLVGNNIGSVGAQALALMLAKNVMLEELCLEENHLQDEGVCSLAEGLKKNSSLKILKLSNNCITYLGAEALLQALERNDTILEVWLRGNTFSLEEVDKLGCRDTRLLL

On to `COc1ccc(-c2nnc(NC(=O)c3ccc(S(=O)(=O)N4CCc5ccccc5C4)cc3)o2)cc1`, for which the EC50 (in general, the midpoint of the concentration-response curve) in assay [1] was > 150 µM (inactive); in assay [2] it was < 0.1 µM (active); in [3] it was > 12 µM (not active); in assay [4], > 20 µM (inactive); in assay [5], 92.6 µM (active); in [7], > 12 µM (not active). Besides, the EC50 in assay [8] was < 0.1 µM (active); in assay [9] it was 0.139 µM (active); in assay [10], 132 µM (inconclusive); in assay [11] it was 0.256 µM (active); in assay [13], > 20 µM (inactive); in assay [16] it was > 180 µM (inactive). The EC50 in [17] is > 150 µM (inconclusive); in assay [18], 90.3 µM (active); in [19], > 12 µM (not active); in assay [20], 9.02 µM (active); in [21], > 150 µM (inactive). Further, the IC50 (commonly the concentration that inhibits the measured activity by half) is > 20 µM (inactive) in [6], > 20 µM (inactive) in [12], 19.6 µM (inactive) in assay [14] and > 20 µM (inactive) in assay [15].
